# Test system: Plasmodium berghei
# Test: Antimalarial activity against Plasmodium berghei
# Format: functional
row,SMILES,log(1/C)
1,OC(CC1CCCCN1)c1cc(Oc2ccc(Cl)c(Cl)c2)nc2c(Cl)cc(Cl)cc12 (stereo not given),4.1
2,CCCCCCCN(CCCCCCC)CC(O)c1cc2ccc(Br)cc2c2sccc12 (stereo not given),2.67
3,CCCCN(CCCC)CC(O)c1c(C)c2ccccc2c2ccccc12 (stereo not given),2.79
4,CCN(CC)C(CO)CC(O)c1cc(-c2cccs2)nc2ccc(Cl)cc12 (stereo not given),2.12
5,CCCCN(CCCC)CC(O)c1cc2ccc(Br)cc2c2cc(Br)ccc12 (stereo not given),3.63
6,CCCCCCCN(CCCCCCC)CC(O)c1cccc2c1ccc1cc(Cl)c(Cl)cc12 (stereo not given),2.55
7,CCCN(CCC)CC(O)c1cc2cc(Br)cc(Br)c2c2cc(C(F)(F)F)ccc12 (stereo not given),4.24
8,OC(CC1CCCCN1)c1cc2cc(Br)c(Br)cc2c2cc(C(F)(F)F)ccc12 (stereo not given),3.58
9,CCCN(CCC)CC(O)c1cc2cc(Cl)ccc2c2cc(Cl)ccc12 (stereo not given),4.06
10,CCCCCCCN(CCCCCCC)CC(O)c1cc2sccc2c2ccsc12 (stereo not given),2.58
11,CCCCCCCN(CCCCCCC)CC(O)c1cc(-c2ccc(F)cc2)nc(-c2ccc(F)cc2)c1 (stereo not given),2.55
12,OC(CC1CCCCN1)c1cc2ccc(C(F)(F)F)cc2c2cc(Cl)ccc12 (stereo not given),4.25
13,Cc1cc(C)c2nc(-c3ccc(F)cc3)cc(C(O)CC3CCCCN3)c2c1 (stereo not given),3.61
14,CCCCN(CCCC)CC(O)c1cc2cc(Cl)c(Cl)cc2c2c(Cl)cc(Cl)cc12 (stereo not given),4.18
15,COc1ccc(OC)c2c(C(O)CNC34CC5CC(CC(C5)C3)C4)cc(-c3ccc(Cl)cc3)nc12 (stereo not given),2.48
16,CCCCCCCN(CCCCCCC)CC(O)c1cccc2cc3ccccc3cc12 (stereo not given),2.99
17,OC(CNC1CCCCC1)c1cc2ccc(Cl)cc2c2cc(Cl)ccc12 (stereo not given),3.36
18,OC(CC1CCCCN1)c1cc2ccc(Cl)cc2c2cc(Cl)ccc12 (stereo not given),3.5
19,CCCCN(CCCC)CC(O)c1cc(-c2ccc(C(F)(F)F)cc2)nc(-c2ccc(C(F)(F)F)cc2)c1 (stereo not given),4.09
20,OC(CC1CCCCN1)c1cc2cc(C(F)(F)F)cc(C(F)(F)F)c2c2ccccc12 (stereo not given),4.19
21,CCCCN(CCCC)CC(O)c1ccnc2c1cnc1cc(Cl)ccc12 (stereo not given),2.11
22,CCCCCCCN(CCCCCCC)CC(O)c1cccc2c3ccccc3c3ccccc3c12 (stereo not given),2.28
23,CCCCN(CCCC)CC(O)c1cc2cc(Br)ccc2c2ccccc12 (stereo not given),3.5
24,CCCCCCCN(CCCCCCC)CC(O)c1cc2ccc(C(F)(F)F)cc2c2cc(C(F)(F)F)ccc12 (stereo not given),3.89
25,CCCCCCCN(CCCCCCC)CC(O)c1cc2ccc(Cl)cc2c2cc(OC)ccc12 (stereo not given),2.98

row,SMILES,log(1/C)
1,CCCCN(CCCC)CC(O)c1cc2ccccc2c2cccc(Cl)c12 (stereo not given),2.32
2,CCCCN(CCCC)CC(O)c1cc(-c2ccc(Cl)cc2)nc2c(C)cc(C)cc12 (stereo not given),3.9
3,CCCCN(CCCC)CCC(O)c1cc(C(F)(F)F)nc2ccc(C(F)(F)F)cc12 (stereo not given),3.31
4,OC(CC1CCCCN1)c1c2c(nc3c(Cl)cc(Cl)cc13)-c1cccc(Cl)c1CC2 (stereo not given),3.6
5,CCCC(CCC)NCC(O)c1cc(-c2ccc(C(F)(F)F)cc2)nc(-c2ccc(C(F)(F)F)cc2)c1 (stereo not given),4.35
6,OC(CC1CCCCN1)c1cc2ccccc2c2ccccc12 (stereo not given),2.53
7,CCCCN(CCCC)CC(O)c1c(C)cnc2c1cc(Cl)c1ccccc12 (stereo not given),2.38
8,CCCCCCN(CCCCCC)CC(O)c1cc(-c2ccc(Cl)cc2)nc(-c2ccc(Cl)cc2)c1 (stereo not given),3.18
9,CCN(CC)CC(O)c1cc(-c2ccc(Cl)cc2)cc2ccccc12 (stereo not given),3.51
10,CCCCCCCN(CCCCCCC)CC(O)c1cc2ccc(C(F)(F)F)cc2c2sccc12 (stereo not given),3.36
11,CCCCN(CCCC)CC(O)c1cc(-c2ccc(I)cc2)nc2c(Cl)cc(Cl)cc12 (stereo not given),4.5
12,CCCCN(CCCC)CC(O)c1c2ccccc2c(Br)c2ccccc12 (stereo not given),2.88
13,OC(CC1CCCCN1)c1cc2ccc(C(F)(F)F)cc2c2c(Cl)cc(Cl)cc12 (stereo not given),4.3
14,CCCCN(CCCC)CC(O)c1cc(-c2ccc(Cl)cc2)cc2ccccc12 (stereo not given),3.87
15,Cc1ccc2nc(-c3ccccc3)cc(C(O)CC3CCCCN3)c2c1 (stereo not given),2.47
16,CCCCN(CCCC)CC(O)c1c(C)cnc2c1ccc1ccccc12 (stereo not given),2.15
17,CCCCN(CCCC)CC(O)c1cc(Oc2cccc(C(C)(F)F)c2)nc2c(Cl)cc(Cl)cc12 (stereo not given),2.76
18,CCCCNCC(O)c1cc(-c2ccc(C(F)(F)F)cc2)nc(-c2ccc(C(F)(F)F)cc2)c1 (stereo not given),4.16
19,CCCCN(CCCC)CC(O)c1cc2c(Cl)cc(Cl)cc2c2ccsc12 (stereo not given),3.2
20,CCCCCCCCN(CCCCCCCC)CC(O)c1ccnc2ccccc12 (stereo not given),2.44
21,CCCCN(CCCC)CC(O)c1cc(C(C)(C)C)nc2c1ccc1ccccc12 (stereo not given),2.65
22,CCCCN(CCCC)CC(O)c1c(C)c(-c2ccc(Cl)cc2)nc2c(Cl)cc(Cl)cc12 (stereo not given),3.06
23,CCCCCCN(CCCCCC)CC(O)c1cc(-c2ccc(Cl)cc2)nc2cc(Cl)ccc12 (stereo not given),3.28
24,CCN(CC)CC(O)c1cc(-c2ccccc2)nc2ccc(OC)cc12 (stereo not given),2.44
25,Cc1ccc2cc(C(O)CC3CCCCN3)c3ccc(C(F)(F)F)cc3c2c1 (stereo not given),3.16

row,SMILES,log(1/C)
1,CCCCN(CCCC)CC(O)c1cc2c(Cl)c(Cl)ccc2c2cc(Cl)c(Cl)cc12 (stereo not given),3.34
2,CCN(CC)CC(O)c1cc(-c2ccc(OC)c(OC)c2)nc2ccc(Cl)cc12 (stereo not given),3.12
3,CCCCN(CCCC)CC(O)c1cc2ccsc2c2cc(C(F)(F)F)ccc12 (stereo not given),3.5
4,CCCCN(CCCC)CC(O)c1cc(/C=C/c2ccc(C(F)(F)F)cc2)nc(-c2ccc(C(F)(F)F)cc2)c1 (stereo not given),4.26
5,CCCCCCCCCN(CCCCCCCCC)CC(O)c1c2ccccc2cc2ccccc12 (stereo not given),3.24
6,CCCCN(CCCC)CC(O)c1cc2cccc(Br)c2c2cc(C(F)(F)F)ccc12 (stereo not given),3.52
7,CCN(CC)CC(O)c1cc(-c2ccc(C)cc2)nc2c(C)cc(C)cc12 (stereo not given),2.8
8,CCCCN(CCCC)CC(O)c1cc2ccccc2c2ccsc12 (stereo not given),2.22
9,CCCCCCCN(CCCCCCC)CC(O)c1cc2ccc(Cl)cc2c2ccncc12 (stereo not given),2.31
10,Cc1cc(C)c2nc(Nc3ccc(Cl)cc3)cc(C(O)CC3CCCCN3)c2c1 (stereo not given),2.74
11,OC(CC1CCCCN1)c1cc2cc(Cl)c(Cl)cc2c2cc(Br)ccc12 (stereo not given),3.91
12,CCCN(CCC)CC(O)c1cc2cc(C(F)(F)F)cc(C(F)(F)F)c2c2cc(Cl)c(Cl)cc12 (stereo not given),5.18
13,CCCCCCN(CCCCCC)CCC(O)c1cc2c(O)cccc2c2ccccc12 (stereo not given),2.52
14,CCCCN(CCCC)CC(O)c1cc(-c2ccc(Cl)cc2)nc2ccc(Cl)cc12 (stereo not given),3.8
15,OC(CC1CCCCN1)c1cc2cc(Cl)ccc2c2cc(C(F)(F)F)ccc12 (stereo not given),4.07
16,OC(CNC1CCCCC1)c1cc2ccc(C(F)(F)F)cc2c2cc(C(F)(F)F)ccc12 (stereo not given),3.72
17,CCCCN(CCCC)CC(O)c1cccc2c1ccc1ccccc12 (stereo not given),2.06
18,CCCCN(CCCC)CC(O)c1cc(C(=O)c2cccc(Cl)c2)nc2c(Cl)cc(Cl)cc12 (stereo not given),4.48
19,Cc1c(Cl)ccc2c(C(O)CN(CCC(C)C)CCC(C)C)cc(-c3ccc(Cl)cc3)nc12 (stereo not given),3.09
20,OC(CC1CCCCN1)c1cc2ccccc2c2c(Cl)cc(Cl)cc12 (stereo not given),3.52
21,CCCCN(CCCC)CC(O)c1cc(C(F)(F)F)nc2c(C(F)(F)F)cccc12 (stereo not given),3.6
22,OC(CC1CCCCN1)c1cc2ccccc2c2ccc(C(F)(F)F)cc12 (stereo not given),3.22
23,CCN(CC)CC(O)c1cc2ccc(Cl)cc2nc1-c1ccc(Cl)cc1 (stereo not given),2.11
24,Cc1ccc2nc(C(F)(F)F)cc(C(O)CC3CCCCN3)c2c1 (stereo not given),2.84
25,CCC(CC)NCC(O)c1cc2ccc(C(F)(F)F)cc2c2cc(C(F)(F)F)ccc12 (stereo not given),4.2

row,SMILES,log(1/C)
1,OC(CC1CCCCN1)c1cc(-c2ccc(Cl)cc2)nc(-c2ccc(Cl)cc2)c1 (stereo not given),3.83
2,OC(CNCc1ccccc1)c1cc(-c2ccc(Cl)c(Cl)c2)nc2c(Cl)cc(Cl)cc12 (stereo not given),3.66
3,CCCCN(CCCC)CC(O)c1c(Br)c2cc(Br)ccc2c2ccc(Br)cc12 (stereo not given),3.09
4,CCCCCCCCN(CCCCCCCC)CC(O)c1cc(-c2ccc(CC)c(CC)c2)cc2ccc(C)cc12 (stereo not given),3.15
5,CCCCN(CCCC)CC(O)c1cc(-c2ccc(Cl)c(Cl)c2)nc2c(Cl)cc(Cl)cc12 (stereo not given),4.21
6,CCNCC(O)c1cc2ccc(C(F)(F)F)cc2c2cc(C(F)(F)F)ccc12 (stereo not given),4.39
7,CCCCCCCN(CCCCCCC)CC(O)c1cc2cccnc2c2ccccc12 (stereo not given),2.9
8,CCCCN(CCCC)CC(O)c1cc(/C=C/c2ccc(C(F)(F)F)cc2)nc(C(=O)c2ccc(C(F)(F)F)cc2)c1 (stereo not given),3.91
9,CCCCN(CCC)CC(O)c1ccc2cc3ccccc3cc2c1 (stereo not given),2.49
10,CCNC(C)(C)CC(O)c1cc(C(F)(F)F)nc2c(C(F)(F)F)cccc12 (stereo not given),2.54
11,CCCCCCN(CCCCCC)CC(O)c1cc(-c2ccc(Cl)cc2)nc2c(Cl)cccc12 (stereo not given),3.32
12,OC(CC1CCCCN1)c1cc2cc(C(F)(F)F)cc(C(F)(F)F)c2c2ccc(Cl)cc12 (stereo not given),4.82
13,COc1ccc(-c2cc(C(O)CC3CCCCN3)c3cccc(C(F)(F)F)c3n2)cc1 (stereo not given),3.88
14,CCCCN(CCCC)CC(O)c1cc(C(=O)c2ccc(Cl)cc2)cc2c(Cl)cc(Cl)cc12 (stereo not given),2.66
15,CCCCN(CCCC)CC(O)c1cc(-c2ccc(F)cc2)nc(-c2ccc(F)cc2)c1 (stereo not given),3.23
16,CCCCNCC(O)c1cc(-c2ccc(Cl)cc2)cc2cc(Cl)ccc12 (stereo not given),3.29
17,OC(CC1CCCCN1)c1cc2c(Cl)cc(Cl)cc2c2ccccc12 (stereo not given),3.73
18,OC(CC1CCCCN1)c1cc2c(Cl)c(Cl)ccc2c2cc(C(F)(F)F)ccc12 (stereo not given),4.45
19,CCCCN1CCCCC1CC(O)c1cc2ccccc2c2cc(Br)ccc12 (stereo not given),3.22
20,CCCCN(CCCC)CC(O)c1c2ccccc2cc2cc(Cl)c(Cl)cc12 (stereo not given),2.89
21,CCCCCCN(CCCCCC)CC(O)c1cc(-c2ccc(Cl)c(Cl)c2)nc2cc(C(F)(F)F)ccc12 (stereo not given),3.68
22,CC(C)NCCC(O)c1cc2ccc(C(F)(F)F)cc2c2cc(C(F)(F)F)ccc12 (stereo not given),3.89
23,CCCC(CCC)NCC(O)c1cc(/C=C/c2ccc(C(F)(F)F)cc2)nc(/C=C/c2ccc(C(F)(F)F)cc2)c1 (stereo not given),4.24
24,OC(CC1CCCCN1)c1cc(C(F)(F)F)nc2ccc(C(F)(F)F)cc12 (stereo not given),3.65
25,CCCCN(CCCC)CC(O)c1c(OC)c(-c2ccc(Cl)cc2)nc2c(C)cc(C)cc12 (stereo not given),3.26

# Source: ChEMBL document CHEMBL3227967, “Quantitative structure-activity relationships in 1-aryl-2-(alkylamino)ethanol antimalarials” (J Med Chem, 1979)
